Source: patent US20220411362A1, “DITERPENOID COMPOUNDS THAT ACT ON PROTEIN KINASE C (PKC)” (K-Gen, Inc., priority 2019, published 2022)
Like-named read-outs stand apart in the source and are kept apart here.

Assays:
[1] = Pharmacokinetic study, intravenous bolus injection in rats; format: in vivo; conditions: Sprague Dawley; for concentration at 0.0167 hour / concentration at 0.0833 hour / concentration at 0.25 hour / concentration at 0.5 hour / concentration at 1 hour / concentration at 2 hour / concentration at 4 hour / concentration at 7 hour / concentration at 24 hour / Vd: plasma, rat; for concentration at 0.0167 hour: 0.0167 hour post dose; for concentration at 0.0167 hour / concentration at 0.0833 hour / concentration at 0.25 hour / concentration at 0.5 hour / concentration at 1 hour / concentration at 2 hour / concentration at 4 hour / concentration at 7 hour / concentration at 24 hour: read-out: Concentration in Rat Plasma after Bolus Injection, Mean; for concentration at 0.0833 hour: 0.0833 hour post dose; for concentration at 0.25 hour: 0.25 hour post dose; for concentration at 0.5 hour: 0.5 hour post dose; for concentration at 1 hour: 1 hour post dose; for concentration at 2 hour: 2 hour post dose; for concentration at 4 hour: 4 hour post dose; for concentration at 7 hour: 7 hour post dose; for concentration at 24 hour: 24 hour post dose; for AUC(0-t) / C0 / MRT inf / clearance / half-life / Vd: rat plasma; for Vd: iv
Protocol: Pharmacokinetic (PK) studies were conducted for compounds described in this disclosure, and the PK study of K101-C1327 administered by intravenous injection in rats is given as an example. Briefly, K101-C1327 was dissolved in a pH 5 buffer solution at the concentrations of 2.0 mg/mL, and diluted to 0.04 and 0.08 mg/mL to achieve the doses of 0.1 and 0.2 mg/kg with a dosing volume of 2.5 mL/kg, respectively. The K101-C1327 dosing solutions were administered via intravenous bolus injection in 3 rats (Sprague Dawley). Plasma samples were taken at 1 minute, 5 minutes, 15 minutes, 30 minutes, 1 hour, 2 hours, 4 hours, 7 hours, and 24 hours. The drug concentrations at each time point were determined by LC-MS. The results of drug concentrations and pharmacokinetic parameters are presented in the Table 6 and Table 7, respectively, below.

[2] = tested on: phosphorylation of PKCμ, PKCδ and Erk1/2 in A549 lung cancer cells; format: cell-based; conditions: 0.3 μM, 30 minutes, Western blot (FIG. 1)
Protocol: Cells were then treated with different drugs at indicated concentrations for 30 minutes. […] Imagequant LAS4000 (GE) was used to scan membranes if secondary antibodies anti-mouse IgG HRP conjugate or anti-rabbit IgG HRP conjugate (dilutions from 1:2000-1:10000) were used. For ProteinSimple Wes system, manufacture's procedure was followed (ProteinSimple 12-230 kDa Wes Separation Module) for sample preparation, loading, running, and data analysis.
Phosphorylation of these sites has been linked to acute activation or catalytic activity of the PKC isoforms and Erk1/2. High level of phosphorylation indicates strong activation.

Structure (SMILES): CC1=C[C@H]2[C@@]3(O)[C@H](C)C[C@]4(OC(=O)[C@@H](N)CC5CCCCC5)[C@H]([C@@H]3C=C(CO)C[C@]2(O)C1=O)C4(C)C [Compound K101-C1327]
- concentration at 0.0167 hour ([1]; dose 0.1 mg/kg): 216 ng/mL
- concentration at 0.0833 hour ([1]; dose 0.1 mg/kg): 49.2 ng/mL
- concentration at 0.25 hour ([1]; dose 0.1 mg/kg): 28.7 ng/mL
- concentration at 0.5 hour ([1]; dose 0.1 mg/kg): 19.4 ng/mL
- concentration at 1 hour ([1]; dose 0.1 mg/kg): 14.6 ng/mL
- concentration at 2 hour ([1]; dose 0.1 mg/kg): 5 ng/mL
- concentration at 4 hour ([1]; dose 0.1 mg/kg): 1 ng/mL
- concentration at 7 hour ([1]; dose 0.1 mg/kg): < 1 ng/mL
- concentration at 24 hour ([1]; dose 0.1 mg/kg): < 1 ng/mL
- concentration at 0.0167 hour ([1]; dose 0.2 mg/kg): 334 ng/mL
- concentration at 0.0833 hour ([1]; dose 0.2 mg/kg): 102 ng/mL
- concentration at 0.25 hour ([1]; dose 0.2 mg/kg): 65 ng/mL
- concentration at 0.5 hour ([1]; dose 0.2 mg/kg): 43.6 ng/mL
- concentration at 1 hour ([1]; dose 0.2 mg/kg): 37.6 ng/mL
- concentration at 2 hour ([1]; dose 0.2 mg/kg): 29.1 ng/mL
- concentration at 4 hour ([1]; dose 0.2 mg/kg): 6 ng/mL
- concentration at 7 hour ([1]; dose 0.2 mg/kg): < 1 ng/mL
- concentration at 24 hour ([1]; dose 0.2 mg/kg): < 1 ng/mL
- AUC(0-t) ([1]; 0.1 mg/kg): 48.3 ng·h/mL
- C0 ([1]; 0.1 mg/kg): 314 ng/mL
- MRT inf ([1]; 0.1 mg/kg): 0.873 h
- clearance ([1]; 0.1 mg/kg): 32.9 mL/min/kg
- half-life ([1]; 0.1 mg/kg): 0.857 h
- AUC(0-t) ([1]; 0.2 mg/kg): 119 ng·h/mL
- C0 ([1]; 0.2 mg/kg): 450 ng/mL
- MRT inf ([1]; 0.2 mg/kg): 2.93 h
- clearance ([1]; 0.2 mg/kg): 21.5 mL/min/kg
- half-life ([1]; 0.2 mg/kg): 2.29 h
- Vd ([1]; 0.1 mg/kg, 0.1 mg/kg, read-out: Vss): 1.73 L/kg
- Vd ([1]; 0.1 mg/kg, 0.1 mg/kg, read-out: Vz): 2.44 L/kg
- Vd ([1]; 0.2 mg/kg, 0.2 mg/kg, read-out: Vss): 2.77 L/kg
- Vd ([1]; 0.2 mg/kg, 0.2 mg/kg, read-out: Vz): 3.25 L/kg
- phosphorylation of PKC (PKD/PKCμ), PKCδ and Erk1/2 [2]: induced high levels of phosphorylation
